Measured values reported in PMC7554884, “Small Molecule Inhibitors of DYRK1A Identified by Computational and Experimental Approaches” (International Journal of Molecular Sciences, 2020).
Like-named read-outs stand apart in the source and are kept apart here.

Key:
[1] = target: T1, DYRK1A(h) (Homo sapiens, UniProt Q13627); experiment: In vitro enzymatic assay (Eurofins, radiometric 33P-ATP); type: biochemical; conditions: for % inhibition at 10 μM / inhibition at 10 µM: DYRK1A; for IC50: read-out: IC50 values against DYRK1A
T1 construct: purchased Eurofins Scientific Inc. Korea (contract assay service)
Protocol: Enzymatic assays were performed by Eurofins Scientific Inc. Korea (Brussels, Belgium). […] The reaction was initiated by the addition of the MgATP mix. After incubation for 40 min at room temperature, the reaction was stopped by the addition of 3% phosphoric acid solution. Then, 10 μL of the reaction was then spotted onto a P30 filtermat and washed three times for 5 min in 75 mM phosphoric acid and once in methanol prior to drying and scintillation counting. […] All assays were performed in duplicate, and the average IC50 value was reported.

[2] = tested on: DYRK1A; set-up: method as in PMID 30170319; conditions: staurosporine; read-out: IC50 against DYRK1A; cited from earlier work
[3] = tested on: GSK3β; conditions: read-out: IC50 against GSK3β, cited from earlier work
[4] = as summarised in the discussion

COc1ccc(Nc2cc(C)nc(Nc3ccc(OC)cc3)n2)cc1 [Compound 5, N^2,N^4-bis(4-methoxyphenyl)-6-methylpyrimidine-2,4-diamine]
% inhibition at 10 μM [1]: 27% | inhibition at 10 µM [1]: < 40%

N#Cc1cccc2sc(C(=O)O)cc12 [Compound 4, 4-cyanobenzo[b]thiophene-2-carboxylic acid]
inhibition at 10 µM [1]: 71% | IC50 [1, 4]: ~3.2 µM | IC50 ([1]; duplicate, average): 3.24 µM

O=C(O)c1cc2cc(Br)ccc2s1 [Compound 3, 5-bromobenzo[b]thiophene-2-carboxylic acid]
inhibition at 10 µM [1]: 82% | IC50 [1, 4]: ~3.2 µM | IC50 ([1]; duplicate, average): 3.25 µM

COc1ccc(Nc2ncc(F)c(N3CCOCC3)n2)cc1 [Compound 7, 5-fluoro-N-(4-methoxyphenyl)-4-morpholinopyrimidin-2-amine]
% inhibition at 10 μM [1]: 33% | inhibition at 10 µM [1]: < 40%

O=C(O)c1cccc(Nc2nc(-c3ccccc3)c3cc(Br)ccc3n2)c1 [Compound 6, 3-((6-bromo-4-phenylquinazolin-2-yl)amino)benzoic acid]
inhibition at 10 µM [1]: 76% | IC50 ([1]; duplicate, average): 5.83 µM

CC(C)c1nn(C)cc1-c1nc2c(N3CCN(Cc4cccnc4)CC3)c(Br)cnc2[nH]1 [Compound 1, 6-bromo-2-(3-isopropyl-1-methyl-1H-pyrazol-4-yl)-7-(4-(pyridin-3-ylmethyl)piperazin-1-yl)-3H-imidazo(4,5-b)pyridine]
inhibition at 10 µM [1]: 70% | IC50 ([1]; duplicate, average): 6.77 µM

N#Cc1ccc2[nH]c(O)c(-c3ccc(CN4CCOCC4)cn3)c2c1 [AZD1080, 2-hydroxy-3-(5-(morpholinomethyl)pyridin-2-yl)-1H-indole-5-carbonitrile, reference compound]
inhibition at 10 µM [1]: 71% | IC50 ([1]; duplicate, average): 2.91 µM | IC50 ([3]; AZD1080): 0.031 µM

COC(=O)c1sc2ncnc(Nc3cccc(OC)c3)c2c1C [Compound 2, methyl 4-((3-methoxyphenyl)amino)-5-methylthieno (2,3-d)pyrimidine-6-carboxylate]
inhibition at 10 µM [1]: 58% | IC50 ([1]; duplicate, average): 5.71 µM
